Source: the NIST ThermoML archive (doi:10.1021/je060139a)

Assays:
[1] = refractive index (Na D-line) (dimensionless); xn = mol fraction of the nth substance listed; conditions: 100.5 kPa, Liquid, Standard Abbe refractometry
[2] = xn = mol fraction of the nth substance listed; conditions: Wilhelmy plate method

CCOC(=O)CC(C)C [ethyl 3-methylbutanoate] + CCO
Conditions	refractive index, [1]	surface tension liquid-gas, [2] [mN/m]
288.15 K, x1 = 0.05	1.3677	23.14
288.15 K, x1 = 0.1	1.37142	23.26
288.15 K, x1 = 0.15	1.37464	23.37
288.15 K, x1 = 0.2	1.37745	23.46
288.15 K, x1 = 0.25	1.37993	23.55
288.15 K, x1 = 0.3	1.38213	23.62
288.15 K, x1 = 0.35	1.3841	23.69
288.15 K, x1 = 0.4	1.38587	23.76
288.15 K, x1 = 0.45	1.38748	23.82
288.15 K, x1 = 0.5	1.38894	23.88
288.15 K, x1 = 0.55	1.39028	23.93
288.15 K, x1 = 0.6	1.39151	23.99
288.15 K, x1 = 0.65	1.39264	24.04
288.15 K, x1 = 0.7	1.39369	24.09
288.15 K, x1 = 0.75	1.39467	24.15
288.15 K, x1 = 0.8	1.39559	24.2
288.15 K, x1 = 0.85	1.39646	24.25
288.15 K, x1 = 0.9	1.39729	24.3
288.15 K, x1 = 0.95	1.39807	24.35
288.15 K, x1 = 1	1.3988	24.4
298.18 K, x1 = 0.05	1.36363	22.4
298.18 K, x1 = 0.1	1.36724	22.5
298.18 K, x1 = 0.15	1.37038	22.58
298.18 K, x1 = 0.2	1.37312	22.66
298.18 K, x1 = 0.25	1.37554	22.73
298.18 K, x1 = 0.3	1.37769	22.79
298.18 K, x1 = 0.35	1.37961	22.85
298.18 K, x1 = 0.4	1.38134	22.91
298.18 K, x1 = 0.45	1.38291	22.96
298.18 K, x1 = 0.5	1.38434	23
298.18 K, x1 = 0.55	1.38564	23.05
298.18 K, x1 = 0.6	1.38684	23.1
298.18 K, x1 = 0.65	1.38795	23.15
298.18 K, x1 = 0.7	1.38897	23.2
298.18 K, x1 = 0.75	1.38993	23.26
298.18 K, x1 = 0.8	1.39083	23.31
298.18 K, x1 = 0.85	1.39169	23.35
298.18 K, x1 = 0.9	1.3925	23.4
298.18 K, x1 = 0.95	1.39328	23.45
298.18 K, x1 = 1	1.39401	23.5
308.15 K, x1 = 0.05	1.35942	21.57
308.15 K, x1 = 0.1	1.36295	21.64
308.15 K, x1 = 0.15	1.36603	21.7
308.15 K, x1 = 0.2	1.36872	21.76
308.15 K, x1 = 0.25	1.3711	21.81
308.15 K, x1 = 0.3	1.37321	21.86
308.15 K, x1 = 0.35	1.3751	21.91
308.15 K, x1 = 0.4	1.3768	21.96
308.15 K, x1 = 0.45	1.37834	22
308.15 K, x1 = 0.5	1.37974	–
308.15 K, x1 = 0.55	1.38102	22.04
308.15 K, x1 = 0.6	1.3822	22.08
308.15 K, x1 = 0.65	1.38329	22.13
308.15 K, x1 = 0.7	1.3843	22.17
308.15 K, x1 = 0.75	1.38524	22.22
308.15 K, x1 = 0.8	1.38613	22.27
308.15 K, x1 = 0.85	1.38698	22.31
308.15 K, x1 = 0.9	1.38779	22.36
308.15 K, x1 = 0.95	1.38857	22.41
308.15 K, x1 = 1	1.38931	22.45
318.15 K, x1 = 0.05	1.35545	20.65
318.15 K, x1 = 0.1	1.35888	20.72
318.15 K, x1 = 0.15	1.36186	20.78
318.15 K, x1 = 0.2	1.36447	20.83
318.15 K, x1 = 0.25	1.36679	20.88
318.15 K, x1 = 0.3	1.36884	20.94
318.15 K, x1 = 0.35	1.37068	20.99
318.15 K, x1 = 0.4	1.37233	21.03
318.15 K, x1 = 0.45	1.37383	21.08
318.15 K, x1 = 0.5	1.37519	21.12
318.15 K, x1 = 0.55	1.37644	21.17
318.15 K, x1 = 0.6	1.37759	21.21
318.15 K, x1 = 0.65	1.37865	21.26
318.15 K, x1 = 0.7	1.37964	21.3
318.15 K, x1 = 0.75	1.38056	21.35
318.15 K, x1 = 0.8	1.38143	21.4
318.15 K, x1 = 0.85	1.38226	21.45
318.15 K, x1 = 0.9	1.38306	21.5
318.15 K, x1 = 0.95	1.38384	21.55
318.15 K, x1 = 1	1.38458	21.6

CCC(=O)OCc1ccccc1 [benzyl propanoate] + CCO
Conditions	refractive index, 288.15 K	refractive index, 298.18 K	refractive index, 308.15 K	refractive index, 318.15 K	surface tension liquid-gas, 288.15 K [mN/m]	surface tension liquid-gas, 298.18 K [mN/m]	surface tension liquid-gas, 308.15 K [mN/m]	surface tension liquid-gas, 318.15 K [mN/m]
[1], x1 = 0.05	1.38108	1.37691	1.37266	1.36853	–	–	–	–
[1], x1 = 0.1	1.39613	1.39185	1.38756	1.38322	–	–	–	–
[1], x1 = 0.15	1.40891	1.40454	1.4002	1.39583	–	–	–	–
[1], x1 = 0.2	1.42001	1.41559	1.41123	1.40687	–	–	–	–
[1], x1 = 0.25	1.42966	1.42524	1.42091	1.41651	–	–	–	–
[1], x1 = 0.3	1.43817	1.43375	1.42944	1.425	–	–	–	–
[1], x1 = 0.35	1.44572	1.44128	1.43696	1.4325	–	–	–	–
[1], x1 = 0.4	1.45248	1.44801	1.4437	1.43922	–	–	–	–
[1], x1 = 0.45	1.45858	1.45408	1.44977	1.44524	–	–	–	–
[1], x1 = 0.5	1.46414	1.45962	1.4553	1.45072	–	–	–	–
[1], x1 = 0.55	1.46918	1.46464	1.46031	1.45569	–	–	–	–
[1], x1 = 0.6	1.47384	1.46929	1.46494	1.46029	–	–	–	–
[1], x1 = 0.65	1.47807	1.47352	1.46917	1.46451	–	–	–	–
[1], x1 = 0.7	1.48193	1.47737	1.47302	1.46833	–	–	–	–
[1], x1 = 0.75	1.48549	1.48092	1.47658	1.47188	–	–	–	–
[1], x1 = 0.8	1.48877	1.48419	1.47986	1.47516	–	–	–	–
[1], x1 = 0.85	1.49183	1.48725	1.48292	1.47824	–	–	–	–
[1], x1 = 0.9	1.49464	1.49006	1.48574	1.48106	–	–	–	–
[1], x1 = 0.95	1.49721	1.49265	1.48834	1.48366	–	–	–	–
[1], x1 = 1	1.4995	1.49498	1.49074	1.48611	–	–	–	–
[2], x1 = 0.05	–	–	–	–	24	23.2	22.3	21.34
[2], x1 = 0.1	–	–	–	–	24.8	24	23.1	22.1
[2], x1 = 0.15	–	–	–	–	25.5	24.64	23.7	22.7
[2], x1 = 0.2	–	–	–	–	26.13	25.25	24.3	23.3
[2], x1 = 0.25	–	–	–	–	26.7	25.78	24.82	23.8
[2], x1 = 0.3	–	–	–	–	27.23	26.3	25.32	24.3
[2], x1 = 0.35	–	–	–	–	27.76	26.8	25.8	24.78
[2], x1 = 0.4	–	–	–	–	28.3	27.31	26.3	25.28
[2], x1 = 0.45	–	–	–	–	28.85	27.84	26.82	25.78
[2], x1 = 0.5	–	–	–	–	29.4	28.36	27.33	26.28
[2], x1 = 0.55	–	–	–	–	29.95	28.89	27.85	26.78
[2], x1 = 0.6	–	–	–	–	30.5	29.43	28.37	27.28
[2], x1 = 0.65	–	–	–	–	31.06	29.97	28.88	27.78
[2], x1 = 0.7	–	–	–	–	31.62	30.52	29.4	28.3
[2], x1 = 0.75	–	–	–	–	32.23	31.1	29.96	28.83
[2], x1 = 0.8	–	–	–	–	32.88	31.7	30.55	29.4
[2], x1 = 0.85	–	–	–	–	33.7	32.5	31.3	30.1
[2], x1 = 0.9	–	–	–	–	34.5	33.3	32.1	30.9
[2], x1 = 0.95	–	–	–	–	35.2	34	32.8	31.6
[2], x1 = 1	–	–	–	–	36	34.8	33.6	32.4
